Test results reported in US20190315806A1, “POLYMYXIN DERIVATIVE, PREPARATION METHOD AND APPLICATION THEREOF” (priority 2016, published 2019).
Converted amounts (≈) assume the structure as drawn. Where a SMILES comes first, the peptide text is derived from it. Bridges are numbered along the chain shown (N, C = ends). [ ]: non-standard residue; d: D form. The star is where a group is joined. X2 = CC[C@H](C)CCCCC(=O)*; dDab = NCC[C@@H](N)C(=O)O; Dab = NCC[C@H](N)C(=O)O

Legend:
Assay type in all cases: cell-based
[1] = Nephrotoxicity test, renal cytotoxicity by MTT method; details: African green monkey
In short: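 Vero cells, adhered 24 h, exposed to a compound concentration gradient for 72 h at 37 °C, 5% CO2. Viability by MTT (0.5 mg/ml, 3 h), DMSO-solubilised, A570 nm, normalised to background and untreated control. IC50 from inhibition curve, mean of 3 wells per point.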

[2] = tested on: Klebsiella pneumoniae ATCC BAA-2146 (NDM-1); test: Antibacterial activity, MIC by dish double dilution method; details: ATCC BAA-2146
In short: (§1)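 Overnight broth cultures were spotted at 10^4 CFU per dot onto agar plates holding two-fold compound dilutions (final 0.03–128 μg/mL), following CLSI. Plates were read after 18–24 h at 35 °C, with the lowest colony-free concentration taken as MIC.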

[3] = tested on: Staphylococcus epidermidis ATCC 12228; details: ATCC 12228
In short: as §1

[4] = tested on: Acinetobacter baumannii ATCC 19606; details: ATCC 19606
In short: as §1

[5] = tested on: Pseudomonas aeruginosa ATCC 27853; details: ATCC 27853
In short: as §1

[6] = tested on: Escherichia coli ATCC 25922; details: ATCC 25922
In short: as §1

MIC K. pneumoniae ATCC BAA-2146 (NDM-1) [2]: 1 µg/mL (≈ 0.839 µM) | MIC S. epidermidis ATCC 12228 [3]: >128 µg/mL | MIC A. baumannii ATCC 19606 [4]: 1 µg/mL (≈ 0.839 µM) | MIC P. aeruginosa ATCC 27853 [5]: 1 µg/mL (≈ 0.839 µM) | MIC E. coli ATCC 25922 [6]: 0.5 µg/mL (≈ 0.42 µM)
SMILES: CC[C@H](C)CCCCC(=O)N[C@@H](CCN)C(=O)N[C@H](C(=O)N[C@H](CCN)C(=O)N[C@H]1CCNC(=O)[C@H]([C@@H](C)O)NC(=O)[C@H](CCN)NC(=O)[C@H](CCN)NC(=O)[C@H]([C@@H](C)O)NC(=O)[C@@H](Cc2ccccc2)NC(=O)[C@H](CCN)NC1=O)[C@@H](C)O [Compound 143, (S)-6-methyloctanoyl-Dab-Thr-D-Dab-ring(4-10)[Dab-Dab-D-Phe-Thr-Dab-Dab-Thr]] (X2-[Dab]T[dDab][Dab][Dab][dF]T[Dab][Dab]T; lactam 4-C)
IC50 at 72 h [1]: 142 ± 15.2 µg/mL (≈ 119 µM)
